Assay results from ChEMBL document CHEMBL5584261, “N-methylmorpholine incorporation into the structure of biphenyl leads to the bioactive inhibitor of PD-1/PD-L1 interaction” (Bioorg Med Chem Lett, 2024).
Calls of active or inactive are those of the source. The calls are words filed in the database; no cut-off is given here.

Legend:
[1] = molecular target: T1, Programmed cell death protein 1/Programmed cell death 1 ligand 1 (Homo sapiens, UniProt Q9NZQ7); assay: (§1) Inhibition of PD-1/PD-L1 interaction in human Jurkat T cells co-cultured with CHO/TCRAct/PDL1 cells assessed as restoration of T cell activation measured for 6 hrs by luminescence based immune checkpoint blockade assay
T1 sequence (Q15116 whole entry): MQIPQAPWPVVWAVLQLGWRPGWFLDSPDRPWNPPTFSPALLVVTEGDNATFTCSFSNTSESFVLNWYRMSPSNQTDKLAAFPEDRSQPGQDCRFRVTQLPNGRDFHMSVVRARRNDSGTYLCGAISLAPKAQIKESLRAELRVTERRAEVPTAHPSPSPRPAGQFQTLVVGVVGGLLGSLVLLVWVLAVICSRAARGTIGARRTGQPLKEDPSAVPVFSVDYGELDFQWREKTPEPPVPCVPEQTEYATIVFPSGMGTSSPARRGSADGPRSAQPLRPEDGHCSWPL
T1 sequence (Q9NZQ7 whole entry): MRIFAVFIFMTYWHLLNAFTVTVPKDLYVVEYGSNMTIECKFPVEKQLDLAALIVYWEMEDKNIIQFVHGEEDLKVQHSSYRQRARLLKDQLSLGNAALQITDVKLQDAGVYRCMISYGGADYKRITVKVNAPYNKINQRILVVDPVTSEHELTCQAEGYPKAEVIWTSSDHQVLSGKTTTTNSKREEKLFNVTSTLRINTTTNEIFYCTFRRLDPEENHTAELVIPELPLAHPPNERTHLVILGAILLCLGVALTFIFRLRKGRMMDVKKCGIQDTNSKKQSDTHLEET

[2] = molecular target: T2, Programmed cell death protein 1/Programmed cell death 1 ligand 1 (Homo sapiens) (UniProt Q15116+Q9NZQ7); assay: Inhibition of human PD-1/PD-L1 interaction assessed as residual activity at 500 nM for 1 hr by HTRF assay relative to control; type: protein-complex assay
[3] = molecular target: T2, Programmed cell death protein 1/Programmed cell death 1 ligand 1 (Homo sapiens); assay: as §1; details: dose 0.1-100 µM
[4] = molecular target: T1, Programmed cell death protein 1/Programmed cell death 1 ligand 1; assay: Inhibition of human PD-1/PD-L1 interaction incubated for 1 hr by HTRF assay; type: protein-complex assay
PBMC [5] = assay: Induction of T cell activation in human PBMC cells co-cultured with CHO/TCRAct/PD-L1 cells assessed as increase in PD-1 positive cells at 10 uM incubated for 48 hrs by flow cytometry analysis; type: functional, cell-based
PBMC [6] = assay: Induction of T cell activation in human PBMC cells co-cultured with CHO/TCRAct/PD-L1 cells assessed as increase in the percentage of CD69+/CD8+ cells at 10 uM incubated for 48 hrs by flow cytometry analysis; type: functional, cell-based
PBMC [7] = assay: Induction of T cell activation in human PBMC cells co-cultured with CHO/TCRAct/PD-L1 cells assessed as increase in HLA-DR positive cells at 10 uM incubated for 48 hrs by flow cytometry analysis; type: functional, cell-based
PBMC [8] = assay: Induction of T cell activation in human PBMC cells co-cultured with CHO/TCRAct/PD-L1 cells assessed as increase in the percentage of CD25+/CD4+ cells at 10 uM incubated for 48 hrs by flow cytometry analysis; type: functional, cell-based

`O=C(O)[C@@H]1CCCCN1Cc1ccc(OCc2cccc(-c3ccccc3)c2Br)c(Br)c1` was tested. Which EC50 [1] did it give?
Its EC50 is 6.6 µM.

`Cc1c(COc2ccc(CNC(CO)(CO)CO)cc2)cccc1-c1ccc2c(c1)OCCN2C(=O)c1ccc(CNC(CO)(CO)CO)cc1` was tested. Which Activity [2] did it give?
The Activity was 83%.

With `Cc1c(NC(=O)c2ccc(CNC(CO)(CO)CO)cn2)cccc1-c1ccc2c(c1)OCCN2C(=O)c1ccc(CNC(CO)(CO)CO)cc1` as the compound, how does the Activity [2] read?
Its Activity is 92%.

Which results are given for `Cc1c(NC(=O)c2ccc(CNC(CO)CO)cn2)cccc1-c1ccc2c(c1)OCCN2C`?
inhibition [3]: inactive; IC50 [4]: 0.109 µM

Which Activity (PBMC [5]) does the source give for `Cc1c(NC(=O)c2ccc(CNC(CO)(CO)CO)cn2)cccc1-c1ccc2c(c1)OCCN2C` here?
Its Activity is “Active”.

And the Activity (PBMC [6])?
Its Activity is “Active”.

What about the inhibition [3] of the same compound?
Its inhibition is “Dose-Dependent Effect”.

What about the EC50 [1] of the same compound?
Its EC50 is 25.8 µM.

What about the Activity (PBMC [7]) of the same compound?
Its Activity is “Active”.

What about the IC50 [4] of the same compound?
Its IC50 is 0.077 µM.

What about the Activity (PBMC [8]) of the same compound?
Its Activity is “Active”.

For `Cc1c(COc2ccc(CNC(CO)CO)cc2)cccc1-c1ccc2c(c1)OCCN2C(=O)c1ccc(CNC(CO)CO)cc1`, which Activity [2] is on record?
Its Activity is 84%.

Which Activity [2] does the source give for `Cc1c(NC(=O)c2ccc(CNC(CO)CO)cn2)cccc1-c1ccc2c(c1)OCCN2C(=O)c1ccc(CNC(CO)CO)cc1` here?
Its Activity is 70%.
